Source: patent US4364958A, “1-Substituted-3-cycloalkyl-sulfonyl-pyrrolidine-2,5-dione derivatives and fungicidal compositions thereof” (Chinoin Gyogyszer es Vegyeszeti Termekek Gyara Rt., priority 1979, dated 1982)
Values after ≈ are worked out from the molar mass of the structure shown.

Assays:
Candida parapsilosis = test: minimal inhibitory concentration, proliferating fungi; type: cell-based; details: Lodderomyces parapsilosis
Excerpt: (§1) As a medium Saboroud medium was employed.

Candida humicola = test: as above; type: cell-based; details: Vanrija humicola
Excerpt: as §1

Candida benhamii = test: as above; type: cell-based
Excerpt: as §1

Candida vini = test: as above; type: cell-based; details: Kregervanrija fluxuum
Excerpt: as §1

Candida valida = test: as above; type: cell-based; details: Pichia membranifaciens
Excerpt: as §1

Candida guilliermondii = test: as above; type: cell-based; details: Meyerozyma guilliermondii
Excerpt: as §1

Candida lipolytic = test: as above; type: cell-based
Excerpt: as §1

LD50, intraperitoneal = details: mouse, in vivo, ip, intraperitoneally
Excerpt: LD50 of N-pheny-3-cyclohexyl-sulfonyl-pyrrolidine-2,3-dione when applied intraperitoneally

SMILES	MIC (Candida parapsilosis; 24 hours) [µg/mL]	MIC (Candida parapsilosis; 48 hours) [µg/mL]	MIC (Candida humicola; 24 hours) [µg/mL]	MIC (Candida humicola; 48 hours) [µg/mL]	MIC (Candida benhamii; 24 hours) [µg/mL]	MIC (Candida benhamii; 48 hours) [µg/mL]	MIC (Candida vini; 24 hours) [µg/mL]	MIC (Candida vini; 48 hours) [µg/mL]	MIC (Candida valida; 24 hours) [µg/mL]	MIC (Candida valida; 48 hours) [µg/mL]	MIC (Candida guilliermondii; 24 hours) [µg/mL]	MIC (Candida guilliermondii; 48 hours) [µg/mL]	MIC (Candida lipolytic; 24 hours) [µg/mL]	MIC (Candida lipolytic; 48 hours) [µg/mL]	LD50 (LD50, intraperitoneal; female mice) [mg/kg]	LD50 (LD50, intraperitoneal; male mice) [mg/kg]
Cc1ccc(N2C(=O)CC(S(=O)(=O)C3CCCCC3)C2=O)cc1 (stereo not shown)	10 (≈ 29.8 µM)	50 (≈ 149 µM)	5 (≈ 14.9 µM)	25 (≈ 74.5 µM)	25 (≈ 74.5 µM)	75 (≈ 224 µM)	1 (≈ 2.98 µM)	5 (≈ 14.9 µM)	5 (≈ 14.9 µM)	10 (≈ 29.8 µM)	5 (≈ 14.9 µM)	10 (≈ 29.8 µM)	5 (≈ 14.9 µM)	10 (≈ 29.8 µM)	–	–
O=C1CC(S(=O)(=O)C2CCCCC2)C(=O)N1c1ccccc1 (stereo not shown) [1-Phenyl-3-cyclohexyl-sulfonyl-pyrrolidine-2,5-dione]	–	–	–	–	–	–	–	–	–	–	–	–	–	–	382	461
